Experimental findings from patent publication EP0065226A2, “Sulfenamides, process for their preparation, their utilisation as medicines and their preparation” (BAYER AG, priority 1981, dated 1982) are described below.

Test [1] has as its system Leukozytenmigration. As to the kind of experiment: Inhibition of leukocyte migration, drug-soaked sponge implanted under the dorsal skin of rats. The settings on record: Dosis, lokal 10 mg/Ratte; sponge soaked with compound under the dorsal skin. The test is classed as in vivo, Ratten. An excerpt: Die erfindungsgemäßen Sulfenamide sind auch […] wirksam. Diese Wirkung wird durch die Messung der Hemmung der Leukozytenmigration nach an sich bekannten Methoden nachgewiesen (vgl. Higgs et al., Biochemical Pharmacology 28, 1959 (1979) und Eur. J. Pharmacol. 66, 81 (1980)). In der nachfolgenden Tabelle 2 sind die Wirkungen einiger beispielhafter Sulfenamide nach lokaler Applikation, durch Einführen eines mit Wirkstoff getränkten Schwämmchens unter die Rückenhaut von Ratten, zusammengefaßt.

The target in test [2] is T1, Plättchenlipoxygenase (Homo sapiens, UniProt P18054).
T1 construct: der Metabolismus radioaktiv markierter Arachidonsäure an gewaschenen Humanthrombozyten herangezogen; endogenous in cells; host or cells: washed human platelets
T1 sequence (P18054 1-663): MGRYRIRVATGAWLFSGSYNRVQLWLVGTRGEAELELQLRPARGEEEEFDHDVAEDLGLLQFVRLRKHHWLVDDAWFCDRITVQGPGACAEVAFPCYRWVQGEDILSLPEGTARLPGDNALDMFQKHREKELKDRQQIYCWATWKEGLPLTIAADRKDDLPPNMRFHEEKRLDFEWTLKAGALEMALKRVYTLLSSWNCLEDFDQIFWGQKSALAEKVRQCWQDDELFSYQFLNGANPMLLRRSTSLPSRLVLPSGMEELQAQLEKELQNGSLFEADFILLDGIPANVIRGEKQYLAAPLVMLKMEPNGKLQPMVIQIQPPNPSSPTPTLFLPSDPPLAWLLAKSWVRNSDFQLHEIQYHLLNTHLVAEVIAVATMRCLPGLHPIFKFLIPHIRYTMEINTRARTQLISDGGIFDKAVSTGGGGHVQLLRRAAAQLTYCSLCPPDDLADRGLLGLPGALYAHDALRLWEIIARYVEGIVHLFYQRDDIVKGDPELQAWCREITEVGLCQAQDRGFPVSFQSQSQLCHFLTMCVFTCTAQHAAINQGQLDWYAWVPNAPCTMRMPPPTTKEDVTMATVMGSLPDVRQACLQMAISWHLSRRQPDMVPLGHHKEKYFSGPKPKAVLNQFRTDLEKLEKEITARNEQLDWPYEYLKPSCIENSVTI
As to the kind of experiment: Inhibition of platelet lipoxygenase (HETE synthesis), metabolism of radiolabelled arachidonic acid in washed human platelets. It counts as cell-based. The following applies: HETE-Synthese, gewaschene Humanthrombozyten; lowest concentration giving at least 50 % inhibition. The source says: Der Nachweis der lipoxygenasehemmenden Eigenschaften der Sulfenamide erfolgt analog der Methode von Bailey et al., J. Biol. Chem. 255, 5996, (1980) und nach Blackwell und Flower, Brostaglandins 16, 417 (1979). Bei dieser Testmethode wird der Metabolismus radioaktiv markierter Arachidonsäure an gewaschenen Humanthrombozyten herangezogen. Bei diesem in vitro Test werden die radioaktiv markierten Metaboliten aus dem Reaktionsansatz extrahiert und dünnschichtchromatographisch getrennt. Das Autoradiogramm wird am Dünnschicht-Scanner ausgewertet. Bei diesen Testbedingungen werden die markierten Metaboliten von der nicht umgesetzten Arachidonsäure getrennt und sind anschließend quantitativ auswertbar. Die Verteilung der Radioaktivität auf die während der Metabolisierung gebildeten Cyclooxygenaseprodukte Thromboxan B2 (TXB2) und 12-Hydroxy-5,8,10-heptadekatriensäure (HHT) bzw. das Lipoxygenaseprodukt 12-Hydroxy-5,8,11,14-eikosatetraensäure (HETE) unter dem Einfluß der Inhibitoren stellt ein Maß für die Hemmung der Enzyme dar.
Die Lipoxygenasehemmung der erfindungsgemäßen Sulfenamide läßt sich an der Hemmung der HETE-Synthese messen.. Es zeigt sich, daß die Synthese von TXB2und von HHT unbeeinflußt bleibt, während der Arachidonsäureumsatz abnimmt. Wie aus der nachfolgenden Tabelle ersichtlich ist, bewirken die Sulfenamide eine signifikante Hemmung der Plättchenlipoxygenase (HETE-Synthese).
Hemmung der Plättchenlipoxygenase (HETE-Synthese)

As to `COC(=O)c1ccc(SNc2nc[nH]n2)cc1` [Beispiel 30], the “Hemmung der Leukozyten-migration (Kontrolle = 0 %)” value in test [1] came to 31%. For the compound `Clc1ccc(SNc2ncccn2)cc1` [Beispiel 5], in test [2], the “Minimale effektive Hemmkonzen-zentration (mindestens 50 % Hemmung)” value is given as 10^-6 g/ml. As for `Cc1nnc(NSc2ccccc2)s1` [Beispiel 25], the “Hemmung der Leukozyten-migration (Kontrolle = 0 %)” value in test [1] stood at 80%. On to `Cc1nsc(NSc2ccc(Cl)cc2)n1` [Beispiel 17], for which the “Minimale effektive Hemmkonzen-zentration (mindestens 50 % Hemmung)” value in test [2] is 10^-6 g/ml. The “Hemmung der Leukozyten-migration (Kontrolle = 0 %)” value in test [1] stood at 53%. As for `CCCc1nsc(NSc2ccccc2)n1` [Beispiel 19], the “Minimale effektive Hemmkonzen-zentration (mindestens 50 % Hemmung)” value in test [2] came out at 3e-06 g/mL. On the same count and under the same terms, then `Clc1ccc(SNc2nc[nH]n2)cc1` [Beispiel 10], with 3e-06 g/mL. For the compound `FC(F)(F)c1cc(SNc2nc[nH]n2)ccc1Cl` [Beispiel 28], in test [1], the “Hemmung der Leukozyten-migration (Kontrolle = 0 %)” value is 29%. As for `c1ccc(SNc2nc(-c3ccccc3)ns2)cc1` [Beispiel 12], the “Minimale effektive Hemmkonzen-zentration (mindestens 50 % Hemmung)” value in test [2] was 3e-06 g/mL. Moreover, the “Hemmung der Leukozyten-migration (Kontrolle = 0 %)” value in test [1] is listed as 35%. In the same order, the values of `c1ccc(SNc2ncccn2)cc1` [Beispiel 2] are 10^-6 g/ml and 45%. As for `CC(C)(C)c1ccc(SNc2ncccn2)cc1` [Beispiel 6], in test [2], the “Minimale effektive Hemmkonzen-zentration (mindestens 50 % Hemmung)” value is reported as 10^-6 g/ml. The same measure, in the same setting: then `CCCc1nsc(NSc2ccc(Cl)cc2)n1` [Beispiel 20], with 3e-06 g/mL; and `Clc1c(Cl)c(Cl)c(SNc2ncccn2)c(Cl)c1Cl` [Beispiel 4], with 10^-6 g/ml. As for `Cc1nnc(NSc2ccc(Cl)cc2)s1` [Beispiel 39], the “Hemmung der Leukozyten-migration (Kontrolle = 0 %)” value in test [1] was 60%. Take `Clc1ccc(SNc2nc(-c3ccccc3)ns2)cc1` [Beispiel 13]: the “Minimale effektive Hemmkonzen-zentration (mindestens 50 % Hemmung)” value in test [2] was 10^-6 g/ml. On the same count and under the same terms, the same measure for `Cc1nc(NSc2ccccc2)ns1` [Beispiel 18]: 10^-6 g/ml. With `c1ccc(SNc2nc[nH]n2)cc1` [Beispiel 11], the “Hemmung der Leukozyten-migration (Kontrolle = 0 %)” value in test [1] turned out to be 76%. Still for that read-out and setting: then `Clc1ccc(SNc2nnc(N3CCOCC3)s2)cc1` [Beispiel 37], with 22%. With `O=C1C(Sc2ccccc2)C(NSc2ccccc2)=NN1c1ccccc1` (stereo not drawn) [Beispiel 24], the “Minimale effektive Hemmkonzen-zentration (mindestens 50 % Hemmung)” value in test [2] turned out to be 3e-06 g/mL.

In the case of `Cc1nsc(NSc2ccccc2)n1` [Beispiel 16], the “Minimale effektive Hemmkonzen-zentration (mindestens 50 % Hemmung)” value in test [2] was 3e-06 g/mL. Also, in test [1], the “Hemmung der Leukozyten-migration (Kontrolle = 0 %)” value stood at 67%. Take `Clc1ccc(SNc2ccccn2)cc1` [Beispiel 23]: the “Minimale effektive Hemmkonzen-zentration (mindestens 50 % Hemmung)” value in test [2] is 10^-5 g/ml.
